Consider one compound from US20200318189A1 (CHANG GUNG MEMORIAL HOSPITAL, LINKOU, priority 2017, published 2020).

Each structure is given as a SMILES string.

Data set [1] has as its system HLA-A*0207 and HLA-B*1502 alleles.

As to `Nc1nnc(-c2cccc(Cl)c2Cl)c(N)n1` [lamotrigine, Lamotrigine], the “Sensitivity (%)” value with HLA-B*1502 allele is listed as 26.92%; in the data set with HLA-A*0207 allele, 42.31%; in data set [1] it was 61.54%. For the same compound, the “Specificity (%)” value in the data set with HLA-B*1502 allele is 90.33%; in the data set on HLA-A*0207 allele it was 83.18%; in data set [1] it was 73.51%.
